According to ChEMBL document CHEMBL1201862, “PubChem BioAssay data set” (2004):
Calls of active or inactive are those of the source.

Tests used:
BJ [1] = experiment: cytotoxicity toward BJ-TERT fibroblasts, dose response, cell-based, RAS-independent, luminescence (AID 1933); assay type: functional; settings: Homo sapiens
[2] = A Cell Based Secondary Assay To Explore Cytotoxicity of Compounds that Sensitize Mycobacterium Tuberculosis to Beta-Lactam Antibiotics.; assay type: functional
BJ [3] = experiment: cells; assay type: functional, cell-based; settings: Homo sapiens
BJ [4] = experiment: cytotoxicity toward BJ-TERT-LT-ST fibroblasts, dose response, cell-based, RAS-independent, luminescence (AID 1935); assay type: functional; settings: Homo sapiens;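 also: BJ fibroblasts immortalized with TERT plus LT and ST oncogenes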
[5] = cytotoxicity toward DRD oncogenic fibroblasts, dose response, cell-based, non-viral oncogenic, luminescence (AID 1934); assay type: functional; settings: Homo sapiens
INS1 = experiment: beta cell apoptosis inhibitors, cytokine rescue, dose response, luminescence, retest (AID 449756); assay type: functional, cell-based; settings: Rattus norvegicus;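 also: cell death triggered by IL-1 beta plus TNF-alpha plus IFN-gamma mixture; protective hits raise ATP signal compared with cytokine alone wells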
[6] = target: T1, Short transient receptor potential channel 4 (Mus musculus, UniProt Q9QUQ5); experiment: mouse TRPC4 channel inhibitors, dose response, cell-based, HEK293 TRPC4/mu-opioid, Fluo-4 calcium (AID 434942); assay type: functional;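 also: potency of inhibitors blocking the TRPC4 calcium response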
T1 sequence (Q9QUQ5 whole entry): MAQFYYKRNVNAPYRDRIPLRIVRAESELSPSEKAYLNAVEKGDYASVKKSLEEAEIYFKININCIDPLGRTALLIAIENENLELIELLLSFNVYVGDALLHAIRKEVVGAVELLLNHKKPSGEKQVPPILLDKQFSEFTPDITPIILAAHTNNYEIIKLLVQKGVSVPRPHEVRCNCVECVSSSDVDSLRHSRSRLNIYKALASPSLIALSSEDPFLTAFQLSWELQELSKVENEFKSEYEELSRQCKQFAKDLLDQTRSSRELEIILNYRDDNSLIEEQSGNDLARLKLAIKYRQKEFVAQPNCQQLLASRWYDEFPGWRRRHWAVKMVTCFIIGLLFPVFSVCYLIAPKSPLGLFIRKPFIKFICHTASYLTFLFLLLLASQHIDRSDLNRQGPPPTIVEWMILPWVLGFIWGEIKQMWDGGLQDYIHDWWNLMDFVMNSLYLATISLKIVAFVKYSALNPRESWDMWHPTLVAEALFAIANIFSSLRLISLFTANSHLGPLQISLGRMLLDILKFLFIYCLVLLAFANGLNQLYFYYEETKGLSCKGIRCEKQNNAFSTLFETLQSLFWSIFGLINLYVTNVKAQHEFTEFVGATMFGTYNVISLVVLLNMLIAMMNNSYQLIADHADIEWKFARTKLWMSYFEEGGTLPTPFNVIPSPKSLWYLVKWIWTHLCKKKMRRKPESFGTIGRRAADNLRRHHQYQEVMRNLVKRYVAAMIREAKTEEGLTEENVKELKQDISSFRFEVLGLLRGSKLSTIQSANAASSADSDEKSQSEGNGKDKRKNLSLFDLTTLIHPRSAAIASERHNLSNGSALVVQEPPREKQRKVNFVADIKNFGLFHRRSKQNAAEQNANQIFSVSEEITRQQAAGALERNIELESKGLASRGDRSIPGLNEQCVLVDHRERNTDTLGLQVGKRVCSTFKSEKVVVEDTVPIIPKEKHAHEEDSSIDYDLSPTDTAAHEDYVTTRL

[7] = target: T2, Corticotropin-releasing factor receptor 2/Corticotropin-releasing factor-binding protein (Homo sapiens, UniProt P24387+Q13324); experiment: activators of CRF receptor 2 with binding protein – uHTS hits, confirmation (AID 602473); assay type: functional; settings: read-out: EC50_Mean
T2 sequence (Q13324 whole entry): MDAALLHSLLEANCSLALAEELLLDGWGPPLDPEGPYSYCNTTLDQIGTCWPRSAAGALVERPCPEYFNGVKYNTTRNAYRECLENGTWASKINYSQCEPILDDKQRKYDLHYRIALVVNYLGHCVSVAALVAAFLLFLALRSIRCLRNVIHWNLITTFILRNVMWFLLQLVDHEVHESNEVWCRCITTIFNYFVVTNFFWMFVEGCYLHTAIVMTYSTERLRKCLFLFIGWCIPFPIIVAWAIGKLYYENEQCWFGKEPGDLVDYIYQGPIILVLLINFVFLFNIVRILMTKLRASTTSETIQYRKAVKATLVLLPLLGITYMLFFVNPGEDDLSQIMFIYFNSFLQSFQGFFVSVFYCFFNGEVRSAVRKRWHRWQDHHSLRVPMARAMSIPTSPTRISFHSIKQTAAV
T2 sequence (P24387 whole entry): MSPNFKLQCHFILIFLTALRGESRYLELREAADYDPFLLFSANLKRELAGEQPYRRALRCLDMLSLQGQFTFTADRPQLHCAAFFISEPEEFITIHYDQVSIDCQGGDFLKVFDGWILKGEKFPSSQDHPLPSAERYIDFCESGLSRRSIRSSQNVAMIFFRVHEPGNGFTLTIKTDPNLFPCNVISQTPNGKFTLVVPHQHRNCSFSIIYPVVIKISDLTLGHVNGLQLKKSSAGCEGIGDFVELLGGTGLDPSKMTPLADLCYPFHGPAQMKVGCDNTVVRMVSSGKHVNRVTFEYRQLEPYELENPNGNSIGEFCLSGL

HeLa = experiment: HeLa cell cytotoxicity, dose response, cytotoxicity control, 24 h, cherry-picked samples (AID 504726); assay type: functional, cell-based; settings: Homo sapiens;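 also: potency for cytotoxicity as loss of luminescence signal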
X-box-binding protein 1 = X-box-binding protein 1 (Homo sapiens, UniProt P17861); assay type: functional, Cricetulus griseus;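 also: confirmatory dose-response counter-screen serving a CHOP assay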
SUMO E1/E2 = SUMO E1/E2 (Homo sapiens, UniProt P63279+Q9UBE0+Q9UBT2); experiment: SAR analysis of SUMOylation using HTRF in an in-Vitro dose response assay. [Related pubchem assays (depositor defined):AID2006, AID2011, AID2018, AID2069, AID2658]; assay type: functional
[8] = target: T3, Voltage-gated N-type calcium channel alpha-1B subunit/Amyloid beta A4 precursor protein-binding family A member 1 (Homo sapiens, UniProt Q00975+Q02410); experiment: disruptors of Mint-PDZ/N-type channel peptide interaction – biochemical, HTRF, set 2, SAR follow-up (AID 434980); assay type: functional
[9] = target: T3, Voltage-gated N-type calcium channel alpha-1B subunit/Amyloid beta A4 precursor protein-binding family A member 1; experiment: disruptors of Mint-PDZ/N-type channel peptide interaction – biochemical, HTRF, SAR follow-up (AID 2489); assay type: functional
[10] = test system: Streptococcus sp. 'group A'; experiment: growth inhibition of control SK(-) GAS strain, dose response, counter-screen for streptokinase expression inhibitor project, luminescence, kanamycin, BacTiterGlo, confirmation (AID 1900); assay type: functional, organism-based
Streptococcus = experiment: Group A Streptococcus viability loss, dose response, counter-screen for streptokinase expression inhibitor project, luminescence, BacTiterGlo (AID 1915); assay type: functional, organism-based;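 also: potency for reduction of bacterial viability or growth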
[11] = target: C-C chemokine receptor type 6 (Homo sapiens, UniProt P51684); experiment: CCR6 receptor antagonists, dose response, cell-based, luminescent beta-arrestin readout (AID 504728); assay type: functional
Beta-galactosidase = Beta-galactosidase (Escherichia coli, UniProt Q8VNN2); experiment: beta-galactosidase enzyme inhibitors and activators, dose response, artefact control for CCR6 antagonist project, biochemical, E. coli enzyme, set 3 (AID 504712); assay type: functional
[12] = target: Luciferin 4-monooxygenase (Photinus pyralis, UniProt P08659); experiment: Counter Screen for Luciferase-based Assay Positives. [Related pubchem assays: 620, 618, 411 ]
HT-1080 = experiment: cytotoxicity in HT1080 fibrosarcoma cells, cell-based, fluorescence readout (AID 620); assay type: functional; settings: Homo sapiens
Wee1-like protein kinase = Wee1-like protein kinase (Homo sapiens, UniProt P30291); experiment: G2/M cell cycle arrest in HeLa, late-stage follow-up, mechanism study for Wee1 degradation inhibitor project, FACS, panel member Wee1 Degradation (AID 2088)
[13] = target: G2/mitotic-specific cyclin-B1 (Homo sapiens, UniProt P14635); experiment: G2/M cell cycle arrest in HeLa, late-stage follow-up, mechanism study for Wee1 degradation inhibitor project, FACS, panel member Cyclin B Degradation (AID 2088)
Sequence of G2/mitotic-specific cyclin-B1 (P14635 whole entry): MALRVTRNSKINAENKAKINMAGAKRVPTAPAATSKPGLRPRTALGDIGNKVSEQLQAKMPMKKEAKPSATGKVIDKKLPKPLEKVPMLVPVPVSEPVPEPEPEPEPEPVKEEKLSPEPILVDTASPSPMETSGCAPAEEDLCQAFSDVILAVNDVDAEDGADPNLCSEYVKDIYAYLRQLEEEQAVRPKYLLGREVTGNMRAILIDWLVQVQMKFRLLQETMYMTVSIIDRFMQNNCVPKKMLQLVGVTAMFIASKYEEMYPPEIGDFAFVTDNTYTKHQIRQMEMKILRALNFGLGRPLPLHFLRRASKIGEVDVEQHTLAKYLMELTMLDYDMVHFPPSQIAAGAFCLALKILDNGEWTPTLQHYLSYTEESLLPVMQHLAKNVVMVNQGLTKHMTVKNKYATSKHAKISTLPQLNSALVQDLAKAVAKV

T3 sequence (Q00975 whole entry): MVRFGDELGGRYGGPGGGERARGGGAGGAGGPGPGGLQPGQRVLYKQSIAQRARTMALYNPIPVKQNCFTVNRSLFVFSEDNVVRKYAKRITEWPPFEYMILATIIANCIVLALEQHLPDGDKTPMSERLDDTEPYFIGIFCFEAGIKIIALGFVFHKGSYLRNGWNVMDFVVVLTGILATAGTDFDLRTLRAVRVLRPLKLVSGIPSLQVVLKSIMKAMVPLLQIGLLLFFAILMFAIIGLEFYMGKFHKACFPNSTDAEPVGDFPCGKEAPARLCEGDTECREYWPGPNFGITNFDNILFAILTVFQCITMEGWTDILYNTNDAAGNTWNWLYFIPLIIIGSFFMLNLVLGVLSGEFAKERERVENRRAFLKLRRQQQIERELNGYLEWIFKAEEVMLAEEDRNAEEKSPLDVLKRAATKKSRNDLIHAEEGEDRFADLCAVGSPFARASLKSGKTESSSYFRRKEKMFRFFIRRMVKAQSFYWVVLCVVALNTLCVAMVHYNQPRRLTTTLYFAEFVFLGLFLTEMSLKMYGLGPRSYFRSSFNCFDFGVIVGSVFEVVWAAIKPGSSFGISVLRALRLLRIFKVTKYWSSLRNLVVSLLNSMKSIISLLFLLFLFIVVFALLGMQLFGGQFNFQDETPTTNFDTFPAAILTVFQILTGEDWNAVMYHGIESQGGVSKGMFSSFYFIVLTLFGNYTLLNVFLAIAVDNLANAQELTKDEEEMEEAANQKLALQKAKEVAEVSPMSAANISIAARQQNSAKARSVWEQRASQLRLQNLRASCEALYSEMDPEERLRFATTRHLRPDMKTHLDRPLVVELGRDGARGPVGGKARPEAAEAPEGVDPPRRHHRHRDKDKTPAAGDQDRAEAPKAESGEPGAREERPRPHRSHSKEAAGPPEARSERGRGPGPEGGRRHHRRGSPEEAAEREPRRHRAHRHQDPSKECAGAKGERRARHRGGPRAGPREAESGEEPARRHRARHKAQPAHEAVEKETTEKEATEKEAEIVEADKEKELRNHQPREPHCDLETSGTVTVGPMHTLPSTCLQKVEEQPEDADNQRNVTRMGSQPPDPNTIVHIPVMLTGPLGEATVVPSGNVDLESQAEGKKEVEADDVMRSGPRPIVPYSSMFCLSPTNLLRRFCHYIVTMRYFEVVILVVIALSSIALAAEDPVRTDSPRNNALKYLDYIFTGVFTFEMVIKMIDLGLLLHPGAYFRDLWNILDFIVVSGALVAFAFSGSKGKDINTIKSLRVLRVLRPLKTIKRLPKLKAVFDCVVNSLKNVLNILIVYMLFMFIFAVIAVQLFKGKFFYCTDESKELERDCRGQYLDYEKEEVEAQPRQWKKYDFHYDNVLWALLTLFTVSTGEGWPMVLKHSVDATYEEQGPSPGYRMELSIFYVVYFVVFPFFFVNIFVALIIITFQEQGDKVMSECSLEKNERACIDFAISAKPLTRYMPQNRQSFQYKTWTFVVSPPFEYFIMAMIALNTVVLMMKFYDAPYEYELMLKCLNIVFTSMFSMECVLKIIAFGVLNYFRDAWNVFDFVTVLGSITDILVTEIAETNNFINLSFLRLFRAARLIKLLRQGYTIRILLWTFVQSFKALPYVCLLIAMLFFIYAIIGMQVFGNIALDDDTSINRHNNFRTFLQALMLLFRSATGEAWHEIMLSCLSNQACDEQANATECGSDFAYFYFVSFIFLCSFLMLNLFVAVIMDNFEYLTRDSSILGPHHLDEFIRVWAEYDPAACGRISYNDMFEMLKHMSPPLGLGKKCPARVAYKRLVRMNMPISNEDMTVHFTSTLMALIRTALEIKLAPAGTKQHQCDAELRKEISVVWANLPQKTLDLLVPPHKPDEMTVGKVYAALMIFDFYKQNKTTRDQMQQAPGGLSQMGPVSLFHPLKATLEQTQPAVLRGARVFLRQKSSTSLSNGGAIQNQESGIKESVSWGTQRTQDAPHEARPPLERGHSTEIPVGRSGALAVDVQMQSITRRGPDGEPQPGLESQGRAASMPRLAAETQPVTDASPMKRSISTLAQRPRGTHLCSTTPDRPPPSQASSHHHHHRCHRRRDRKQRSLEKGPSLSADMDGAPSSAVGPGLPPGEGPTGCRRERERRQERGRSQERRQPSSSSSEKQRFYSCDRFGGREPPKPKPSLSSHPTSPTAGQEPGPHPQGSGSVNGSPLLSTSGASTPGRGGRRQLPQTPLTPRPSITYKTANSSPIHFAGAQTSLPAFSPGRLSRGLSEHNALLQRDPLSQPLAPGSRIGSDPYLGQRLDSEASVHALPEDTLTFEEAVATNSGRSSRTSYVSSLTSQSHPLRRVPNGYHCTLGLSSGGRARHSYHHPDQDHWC
T3 sequence (Q02410 whole entry): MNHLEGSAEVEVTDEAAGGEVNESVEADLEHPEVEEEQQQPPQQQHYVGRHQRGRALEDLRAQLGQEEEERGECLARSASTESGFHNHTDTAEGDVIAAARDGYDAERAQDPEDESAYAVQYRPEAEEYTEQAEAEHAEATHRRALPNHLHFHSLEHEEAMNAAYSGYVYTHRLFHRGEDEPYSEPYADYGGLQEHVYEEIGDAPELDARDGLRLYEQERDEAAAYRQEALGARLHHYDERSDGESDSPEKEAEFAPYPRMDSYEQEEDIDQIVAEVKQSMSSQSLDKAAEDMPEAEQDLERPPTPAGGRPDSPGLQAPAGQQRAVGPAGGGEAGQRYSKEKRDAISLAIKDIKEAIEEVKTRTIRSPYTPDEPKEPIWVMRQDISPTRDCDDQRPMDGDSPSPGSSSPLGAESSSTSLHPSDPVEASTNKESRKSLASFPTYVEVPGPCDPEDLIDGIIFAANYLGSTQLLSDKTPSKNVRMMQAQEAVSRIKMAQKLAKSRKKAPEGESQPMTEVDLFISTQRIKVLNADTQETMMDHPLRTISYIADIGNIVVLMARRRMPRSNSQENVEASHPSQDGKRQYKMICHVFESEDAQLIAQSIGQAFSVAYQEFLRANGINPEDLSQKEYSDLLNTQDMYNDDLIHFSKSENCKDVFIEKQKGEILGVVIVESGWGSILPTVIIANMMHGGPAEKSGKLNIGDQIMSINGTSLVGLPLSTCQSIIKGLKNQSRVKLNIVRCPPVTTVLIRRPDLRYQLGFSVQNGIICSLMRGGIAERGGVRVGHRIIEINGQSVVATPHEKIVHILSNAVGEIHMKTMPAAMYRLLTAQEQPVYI
Sequence of Beta-galactosidase (Q8VNN2 whole entry): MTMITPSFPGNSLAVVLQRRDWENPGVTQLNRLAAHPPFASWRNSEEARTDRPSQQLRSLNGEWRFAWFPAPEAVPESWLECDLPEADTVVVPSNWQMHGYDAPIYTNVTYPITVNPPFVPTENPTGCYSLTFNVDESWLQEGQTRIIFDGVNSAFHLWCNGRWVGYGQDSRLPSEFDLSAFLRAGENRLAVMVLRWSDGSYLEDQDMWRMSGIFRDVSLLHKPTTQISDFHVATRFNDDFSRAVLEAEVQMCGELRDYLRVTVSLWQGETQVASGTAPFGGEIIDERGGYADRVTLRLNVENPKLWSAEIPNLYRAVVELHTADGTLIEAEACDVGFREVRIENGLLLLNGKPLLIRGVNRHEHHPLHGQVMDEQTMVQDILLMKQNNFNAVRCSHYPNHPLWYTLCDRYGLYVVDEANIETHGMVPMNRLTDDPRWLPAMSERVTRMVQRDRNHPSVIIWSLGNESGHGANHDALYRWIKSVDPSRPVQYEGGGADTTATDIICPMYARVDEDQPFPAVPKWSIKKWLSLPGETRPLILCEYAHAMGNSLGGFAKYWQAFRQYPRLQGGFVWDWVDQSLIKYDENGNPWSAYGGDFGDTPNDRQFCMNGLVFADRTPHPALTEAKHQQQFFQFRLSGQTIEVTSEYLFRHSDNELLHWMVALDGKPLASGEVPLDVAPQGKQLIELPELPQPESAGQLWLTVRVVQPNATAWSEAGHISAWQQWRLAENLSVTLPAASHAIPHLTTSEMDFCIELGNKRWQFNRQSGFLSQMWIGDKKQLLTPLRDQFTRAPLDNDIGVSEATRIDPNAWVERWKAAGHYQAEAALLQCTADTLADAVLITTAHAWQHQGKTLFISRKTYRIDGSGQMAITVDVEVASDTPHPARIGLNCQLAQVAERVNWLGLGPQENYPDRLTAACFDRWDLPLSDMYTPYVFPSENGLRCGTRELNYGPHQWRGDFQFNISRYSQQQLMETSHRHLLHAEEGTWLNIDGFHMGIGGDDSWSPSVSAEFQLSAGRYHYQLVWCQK
Sequence of X-box-binding protein 1 (P17861 whole entry): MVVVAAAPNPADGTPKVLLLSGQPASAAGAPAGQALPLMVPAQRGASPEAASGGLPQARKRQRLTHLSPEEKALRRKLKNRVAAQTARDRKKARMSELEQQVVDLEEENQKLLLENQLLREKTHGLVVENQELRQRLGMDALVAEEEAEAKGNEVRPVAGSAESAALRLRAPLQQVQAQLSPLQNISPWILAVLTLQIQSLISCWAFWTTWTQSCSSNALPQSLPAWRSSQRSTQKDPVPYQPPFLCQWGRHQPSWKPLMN

With `COc1nc(Nc2nc(O)c3ccccc3n2)nc2ccc(C)cc12` the EC50 (BJ [1]) was 2.6 µM (active), the CC50 [2] was 3.83 µM (active) and the EC50 (BJ [3]) was 2.93 µM (active). The EC50 (BJ [4]) was 2.88 µM (inconclusive), the EC50 [5] was 2.3 µM (active) and the AC50 (INS1) was 1.31 µM (active).
In the case of `O=C(c1ccc2c(c1)OCO2)C1CCCN(Cc2cc(F)ccc2-n2cccn2)C1` (configuration not stated), the EC50 [6] is reported as 5.96 µM (active) and the EC50 [7] is reported as > 53 µM (inactive).
With `N=c1ccn(Cc2ccc(Cl)cc2)cc1` the AC50 (HeLa) was 16.4 µM (active).
For `COc1cc(-c2nc3c(c(C)nn3-c3ccccc3)c3cc(OC)c(OC)cc23)ccc1O`, the “Absolute IC50 (XBP1)” value (X-box-binding protein 1) was 10 µM.
In the case of `COc1ccc(CNC(=O)CCOC(=O)c2cc(-c3ccco3)nc3ccccc23)cc1`, the IC50 (SUMO E1/E2) is reported as 29.6 µM (active), the IC50 [8] is reported as 14.4 µM (active) and the IC50 [9] is reported as 20.8 µM (active).
For `CN(C)c1nc(N/N=C/c2ccccc2O)nc(Nc2ccc(F)cc2)n1`, the EC50 [10] was 3.62 µM (active), the EC50 (Streptococcus) was 5.81 µM (active) and the IC50 [11] was > 66.6 µM (inactive). The IC50 (Beta-galactosidase) was > 66.6 µM (inactive) and the AC50 (INS1) was 3.59 µM (active).
For `Cc1c(C(=O)NC2=NCCS2)oc2ccccc12`, the EC50 [12] was 2.67 µM (active) and the EC50 (HT-1080) was > 50 µM (not active).
For `Cc1cccc(NC(=O)COc2cc(=O)n(C)c3ccccc23)n1`, the EC50 (Wee1-like protein kinase) was > 49.7 µM (inactive) and the EC50 [13] was > 49.7 µM (inactive).
